Results as given in patent publication US11866450B2, “Modulators of Cystic Fibrosis Transmembrane Conductance regulator, pharmaceutical compositions, methods of treatment, and process for making the modulators” (priority 2018, dated 2024).

Molecular target: CFTR-mediated chloride transport (Homo sapiens, UniProt P13569)
Format: cell-based
Conditions: enteroid cells incubated with test compound 18-24 hours, acute 10 μM forskolin and 300 nM Compound III; for Max. Activity: % of chloride transport with 3 μM Compound A, 3 μM Compound II and 300 nM acute Compound III triple combination control
Experimental: Base medium (ADF+++) consisted of Advanced DMEM/Ham's F12, 2 mM Glutamax, 10 mM HEPES, […] penicillin/streptomycin.
Intestinal enteroid maintenance medium (IEMM) consisted of ADF+++, 1× B27 supplement, 1× N2 supplement, 1.25 mM N-acetyl cysteine, 10 mM Nicotinamide, 50 ng/mL hEGF, 10 nM Gastrin, 1 μg/mL hR-spondin-1, 100 ng/mL hNoggin, TGF-b type 1 inhibitor A-83-01, 100 μg/mL Primocin, 10 μM P38 MAPK inhibitor SB202190.
Bath 1 Buffer consisted of 1 mM MgCl2, 160 mM NaCl, 4.5 mM KCl, 10 mM HEPES, 10 mM Glucose, 2 mM CaCl2).
Chloride Free Buffer consisted of 1 mM Magnesium Gluconate, 2 mM Calcium Gluconate, 4.5 mM Potassium Gluconate, 160 mM Sodium Gluconate, 10 mM HEPES, 10 mM Glucose.
Bath1 Dye Solution consisted of Bath 1 Buffer, 0.04% Pluronic F127, 20 μM Methyl Oxonol, 30 μM CaCCinh-A01, 30 μM Chicago Sky Blue.
Chloride Free Dye Solution consisted of Chloride Free Buffer, 0.04% Pluronic F127, 20 μM Methyl Oxonol, 30 μM CaCCinh-A01, 30 μM Chicago Sky Blue.
Chloride Free Dye Stimulation Solution consisted of Chloride Free Dye Solution, 10 μM forskolin, 100 μM IBMX, and 300 nM Compound III.
Human intestinal epithelial enteroid cells were obtained from the Hubrecht Institute for Developmental Biology and Stem Cell Research, Utrecht, The Netherlands and expanded in T-Flasks as previously described (Dekkers J F, Wiegerinck C L, de Jonge H R, Bronsveld I, Janssens H M, de Winter-de Groot K M, Brandsma A M, de Jong N W M, Bijvelds M J C, Scholte B J, Nieuwenhuis E E S, van den Brink S, Clevers H, van der Ent C K, Middendorp S and M Beekman J M. A functional CFTR assay using primary cystic fibrosis intestinal organoids. Nat Med. 2013 July; 19(7):939-45).
Cells were recovered in cell recovery solution, collected by centrifugation at 650 rpm for 5 min at 4° C., resuspended in TryPLE and incubated for 5 min at 37° C. Cells were then collected by centrifugation at 650 rpm for 5 min at 4° C. and resuspended in IEMM containing 10 μM ROCK inhibitor (RI) (trans-4-[(1R)-1-aminoethyl]-N-4-pyridinylcyclohexanecarboxamide). The cell suspension was passed through a 40 μm cell strainer and resuspended at 1×10^6 cells/mL in IEMM containing 10 μM RI. Cells were seeded at 5000 cells/well into multi-well plates and incubated for overnight at 37° C., 95% humidity and 5% CO2 prior to assay.
Enteroid cells were incubated with test compound in IEMM for 18-24 hours at 37° C., 95% humidity and 5% CO2. Following compound incubations, a membrane potential dye assay was employed using a FLIPR Tetra to directly measure the potency and efficacy of the test compound on CFTR-mediated chloride transport following acute addition of 10 μM forskolin and 300 nM Compound III. Briefly, cells were washed 5 times in Bath 1 Buffer. Bath 1 Dye Solution was added and the cells were incubated for 25 min at room temperature. Following dye incubation, cells were washed 3 times in Chloride Free Dye Solution. Chloride transport was initiated by addition of Chloride Free Dye Stimulation Solution and the fluorescence signal was read for 15 min. The CFTR-mediated chloride transport for each condition was determined from the AUC of the fluorescence response to acute forskolin and 300 nM Compound III stimulation. Chloride transport was then expressed as a percentage of the chloride transport following treatment with 3 μM Compound A, 3 μM Compound II and 300 nM acute Compound III triple combination control (% Activity).

Sequence of CFTR-mediated chloride transport (P13569 whole entry, looked up): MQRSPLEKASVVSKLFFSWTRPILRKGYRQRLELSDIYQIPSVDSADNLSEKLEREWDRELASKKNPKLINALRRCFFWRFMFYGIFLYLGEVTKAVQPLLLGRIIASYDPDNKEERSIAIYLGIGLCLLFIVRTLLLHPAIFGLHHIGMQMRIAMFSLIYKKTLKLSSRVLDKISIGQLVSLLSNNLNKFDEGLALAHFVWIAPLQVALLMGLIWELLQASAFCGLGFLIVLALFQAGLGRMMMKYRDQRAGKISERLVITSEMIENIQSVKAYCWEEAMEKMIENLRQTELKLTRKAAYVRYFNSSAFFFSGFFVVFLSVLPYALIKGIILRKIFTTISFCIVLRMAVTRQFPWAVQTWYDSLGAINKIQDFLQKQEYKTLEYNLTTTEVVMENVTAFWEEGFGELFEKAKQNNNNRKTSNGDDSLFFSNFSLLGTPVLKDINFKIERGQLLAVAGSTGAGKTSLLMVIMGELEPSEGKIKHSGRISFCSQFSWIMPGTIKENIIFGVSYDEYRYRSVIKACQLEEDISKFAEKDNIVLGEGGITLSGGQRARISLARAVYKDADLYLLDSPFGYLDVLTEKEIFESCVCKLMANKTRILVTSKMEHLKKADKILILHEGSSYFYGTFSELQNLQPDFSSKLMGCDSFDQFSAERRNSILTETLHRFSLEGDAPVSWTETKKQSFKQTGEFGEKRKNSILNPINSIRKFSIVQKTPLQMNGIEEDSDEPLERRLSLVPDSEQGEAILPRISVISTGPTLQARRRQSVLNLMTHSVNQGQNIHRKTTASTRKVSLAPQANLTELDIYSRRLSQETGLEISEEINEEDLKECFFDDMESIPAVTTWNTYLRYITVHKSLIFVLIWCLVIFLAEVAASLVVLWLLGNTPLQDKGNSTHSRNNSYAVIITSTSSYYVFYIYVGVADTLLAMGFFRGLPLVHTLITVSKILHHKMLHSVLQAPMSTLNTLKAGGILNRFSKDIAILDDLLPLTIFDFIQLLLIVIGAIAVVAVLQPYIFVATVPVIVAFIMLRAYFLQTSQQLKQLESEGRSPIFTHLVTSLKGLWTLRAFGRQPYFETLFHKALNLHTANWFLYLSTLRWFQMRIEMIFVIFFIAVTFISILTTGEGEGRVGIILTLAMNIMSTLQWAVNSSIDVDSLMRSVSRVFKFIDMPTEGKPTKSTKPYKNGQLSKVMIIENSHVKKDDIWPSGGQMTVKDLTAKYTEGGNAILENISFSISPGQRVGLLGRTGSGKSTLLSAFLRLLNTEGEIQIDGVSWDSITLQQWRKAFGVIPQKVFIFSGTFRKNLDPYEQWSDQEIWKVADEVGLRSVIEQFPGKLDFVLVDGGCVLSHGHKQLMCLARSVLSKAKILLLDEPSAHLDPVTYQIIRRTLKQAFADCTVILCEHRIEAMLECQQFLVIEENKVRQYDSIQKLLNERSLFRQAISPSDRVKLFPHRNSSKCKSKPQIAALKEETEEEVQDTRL

Structure (SMILES) | EC50 | Max. Activity
CC1(C)CC2CCCNc3cccc(n3)S(=O)(=O)NC(=O)c3ccc(-n4ccc(OCC5C6(CC6)C56CC6)n4)nc3N1C2 (racemic) [Compound 105, 8-[3-({dispiro[2.0.2.1]heptan-7-yl}methoxy)-1H-pyrazol-1-yl]-12,12-dimethyl-2λ^6-thia-3,9,11,18,23-pentaazatetracyclo[17.3.1.111,14.05,10]tetracosa-1(22),5,7,9,19(23),20-hexaene-2,2,4-trione] | < 1000 nM | +++ (+++ is >60%)
CC(C)(C)COc1ccn(-c2ccc3c(n2)N2C[C@H](CCNc4cccc(n4)S(=O)(=O)NC3=O)CC2(C)C)n1 (single isomer, unassigned) [Compound 2, 11-[3-(2,2-dimethylpropoxy)-1H-pyrazol-1-yl]-7,7-dimethyl-17λ^6-thia-2,8,10,16,22-pentaazatetracyclo[16.3.1.15,8.09,14]tricosa-1(21),9(14),10,12,18(22),19-hexaene-15,17,17-trione] | 1000 to 3000 nM | +++ (+++ is >60%)
CC(C)(C)COc1ccn(-c2ccc3c(n2)N2C[C@H](CCNc4cccc(n4)S(=O)(=O)NC3=O)CC2(C)C)n1 (single isomer, unassigned) [Compound 3, 11-[3-(2,2-dimethylpropoxy)-1H-pyrazol-1-yl]-7,7-dimethyl-17λ^6-thia-2,8,10,16,22-pentaazatetracyclo[16.3.1.15,8.09,14]tricosa-1(21),9(14),10,12,18(22),19-hexaene-15,17,17-trione] | < 1000 nM | +++ (+++ is >60%)
CC1(C)C[C@H]2CCNc3cccc(n3)S(=O)(=O)NC(=O)c3ccc(-n4ccc(OCC5(C(F)(F)F)CC5)n4)nc3N1C2 (single isomer, unassigned) [Compound 5, 7,7-dimethyl-11-(3-{[1-(trifluoromethyl)cyclopropyl]methoxy}-1H-pyrazol-1-yl)-17λ^6-thia-2,8,10,16,22-pentaazatetracyclo[16.3.1.1(5,8).0(9,14)]tricosa-1(21),9(14),10,12,18(22),19-hexaene-15,17,17-trione] | < 1000 nM | +++ (+++ is >60%)
CC1(C)C[C@H]2CCNc3cccc(n3)S(=O)(=O)NC(=O)c3ccc(-n4ccc(OCC5(C(F)(F)F)CC5)n4)nc3N1C2 (single isomer, unassigned) [Compound 6, 7,7-dimethyl-11-(3-{[1-(trifluoromethyl)cyclopropyl]methoxy}-1H-pyrazol-1-yl)-17λ^6-thia-2,8,10,16,22-pentaazatetracyclo[16.3.1.1(5,8).0(9,14)]tricosa-1(21),9(14),10,12,18(22),19-hexaene-15,17,17-trione] | < 1000 nM | +++ (+++ is >60%)
CC1(C)CC[C@H]2CCCOc3cccc(c3)S(=O)(=O)NC(=O)c3ccc(-n4ccc(OCCC5(C(F)(F)F)CC5)n4)nc3N21 (single isomer, unassigned) [Compound 7, 12,12-dimethyl-8-(3-{2-[1-(trifluoromethyl)cyclopropyl]ethoxy}-1H-pyrazol-1-yl)-19-oxa-2λ^6-thia-3,9,11-triazatetracyclo[18.3.1.05,10.011,15]tetracosa-1(24),5(10),6,8,20,22-hexaene-2,2,4-trione] | < 1000 nM | ++ (++ is 30-60%)
CC1(C)CC[C@H]2CCCOc3cccc(c3)S(=O)(=O)NC(=O)c3ccc(-n4ccc(OCCC5(C(F)(F)F)CC5)n4)nc3N21 (single isomer, unassigned) [Compound 8, 12,12-dimethyl-8-(3-{2-[1-(trifluoromethyl)cyclopropyl]ethoxy}-1H-pyrazol-1-yl)-19-oxa-2λ^6-thia-3,9,11-triazatetracyclo[18.3.1.05,10.011,15]tetracosa-1(24),5(10),6,8,20,22-hexaene-2,2,4-trione] | > 3000 nM | + (+ is <30%)
CC1(C)C[C@H]2CCCNc3cccc(n3)S(=O)(=O)NC(=O)c3ccc(-n4ccc(OCC5(C(F)(F)F)CC5)n4)nc3N1C2 (single isomer, unassigned) [Compound 21, 12,12-dimethyl-8-(3-{[1-(trifluoromethyl)cyclopropyl]methoxy}-1H-pyrazol-1-yl)-2λ^6-thia-3,9,11,18,23-pentaazatetracyclo[17.3.1.111,14.05,10]tetracosa-1(23),5(10),6,8,19,21-hexaene-2,2,4-trione] | > 3000 nM | ++ (++ is 30-60%)
CC1(C)C[C@H]2CCCNc3cccc(n3)S(=O)(=O)NC(=O)c3ccc(-n4ccc(OCC5(C(F)(F)F)CC5)n4)nc3N1C2 (single isomer, unassigned) [Compound 22, 12,12-dimethyl-8-(3-{[1-(trifluoromethyl)cyclopropyl]methoxy}-1H-pyrazol-1-yl)-2λ^6-thia-3,9,11,18,23-pentaazatetracyclo[17.3.1.111,14.05,10]tetracosa-1(23),5(10),6,8,19,21-hexaene-2,2,4-trione] | < 1000 nM | +++ (+++ is >60%)
CC1(C)C[C@H]2CNc3cccc(n3)S(=O)(=O)NC(=O)c3ccc(-n4ccc(OCCC5(C(F)(F)F)CC5)n4)nc3N1C2 (single isomer, unassigned) [Compound 24, 6,6-dimethyl-10-(3-{2-[1-(trifluoromethyl)cyclopropyl]ethoxy}-1H-pyrazol-1-yl)-16λ^6-thia-2,7,9,15,21-pentaazatetracyclo[15.3.1.14,7.08,13]docosa-1(20),8,10,12,17(21),18-hexaene-14,16,16-trione] | > 3000 nM | + (+ is <30%)
CC1(C)C[C@H]2CNc3cccc(n3)S(=O)(=O)NC(=O)c3ccc(-n4ccc(OCCC5(C(F)(F)F)CC5)n4)nc3N1C2 (single isomer, unassigned) [Compound 25, 6,6-dimethyl-10-(3-{2-[1-(trifluoromethyl)cyclopropyl]ethoxy}-1H-pyrazol-1-yl)-16λ^6-thia-2,7,9,15,21-pentaazatetracyclo[15.3.1.14,7.08,13]docosa-1(20),8,10,12,17(21),18-hexaene-14,16,16-trione] | < 1000 nM | ++ (++ is 30-60%)
CC1(C)C[C@H]2CCNc3cccc(n3)S(=O)(=O)NC(=O)c3ccc(-n4ccc(OCCC5(C(F)(F)F)CC5)n4)nc3N1C2 (single isomer, unassigned) [Compound 26, 7,7-dimethyl-11-(3-{2-[1-(trifluoromethyl)cyclopropyl]ethoxy}-1H-pyrazol-1-yl)-17λ^6-thia-2,8,10,16,22-pentaazatetracyclo[16.3.1.15,8.09,14]tricosa-1(21),9,11,13,18(22),19-hexaene-15,17,17-trione] | < 1000 nM | +++ (+++ is >60%)
CC1(C)C[C@H]2CCNc3cccc(n3)S(=O)(=O)NC(=O)c3ccc(-n4ccc(OCCC5(C(F)(F)F)CC5)n4)nc3N1C2 (single isomer, unassigned) [Compound 27, 7,7-dimethyl-11-(3-{2-[1-(trifluoromethyl)cyclopropyl]ethoxy}-1H-pyrazol-1-yl)-17λ^6-thia-2,8,10,16,22-pentaazatetracyclo[16.3.1.15,8.09,14]tricosa-1(21),9,11,13,18(22),19-hexaene-15,17,17-trione] | < 1000 nM | +++ (+++ is >60%)
